Laboratory results as given in ChEMBL document CHEMBL1201862, “PubChem BioAssay data set” (2004).
Activity calls are given as the source filed them.

Columns and labels:
[1] = biological target: DNA repair and recombination protein RAD54-like (Homo sapiens, UniProt Q92698); assay: RAD54 Holliday junction migration blockers – biochemical, fluorescence, cherry-picked samples, dose series, confirmation (AID 651657); type: functional
[2] = biological target: T1, DNA repair protein RAD52 homolog (Homo sapiens, UniProt P43351); type: functional, biochemical
T1 sequence (P43351 whole entry): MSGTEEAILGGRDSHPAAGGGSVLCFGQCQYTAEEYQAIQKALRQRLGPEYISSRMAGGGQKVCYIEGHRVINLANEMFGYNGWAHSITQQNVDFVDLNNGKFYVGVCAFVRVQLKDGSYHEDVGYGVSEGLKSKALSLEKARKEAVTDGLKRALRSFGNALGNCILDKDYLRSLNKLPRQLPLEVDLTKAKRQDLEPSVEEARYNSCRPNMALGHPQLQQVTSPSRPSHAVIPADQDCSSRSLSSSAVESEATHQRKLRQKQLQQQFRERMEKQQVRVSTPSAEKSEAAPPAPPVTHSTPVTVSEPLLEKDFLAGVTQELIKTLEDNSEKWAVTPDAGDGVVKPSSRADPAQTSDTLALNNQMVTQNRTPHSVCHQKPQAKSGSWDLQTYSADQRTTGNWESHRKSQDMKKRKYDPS

cells [3] = conditions: A549
cells [4] = type: functional, cell-based
[5] = biological target: T2, Trace amine-associated receptor 1 (Homo sapiens, UniProt Q96RJ0); assay: Counterscreen for agonists of the human trace amine associated receptor 1 (hTAAR1): Fluorescence-based cell-based high throughput dose response assay to identify hTAAR1 agonist that also desensitize TAAR1 receptor response.; type: functional
T2 sequence (Q96RJ0 whole entry): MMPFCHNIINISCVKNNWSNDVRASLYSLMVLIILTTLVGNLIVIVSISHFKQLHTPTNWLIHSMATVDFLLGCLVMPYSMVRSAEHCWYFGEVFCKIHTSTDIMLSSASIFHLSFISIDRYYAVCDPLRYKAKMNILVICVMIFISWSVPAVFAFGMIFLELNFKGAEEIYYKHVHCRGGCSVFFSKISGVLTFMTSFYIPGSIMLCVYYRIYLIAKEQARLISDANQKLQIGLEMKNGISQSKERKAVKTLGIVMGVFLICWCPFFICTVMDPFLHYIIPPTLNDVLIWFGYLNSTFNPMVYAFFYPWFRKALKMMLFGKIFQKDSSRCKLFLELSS

cells [6] = type: functional, cell-based; remark: listed apart in the source
[7] = biological target: T2, Trace amine-associated receptor 1; assay: Fluorescence-based cell-based high throughput dose response assay to identify agonists of the human trace amine associated receptor 1 (TAAR1).; type: functional
[8] = blockers of bursicon-stimulated LGR2 cAMP reporter – cell-based, HEK293, CRE-luciferase reporter, cherry pick, set 2, dose response (AID 743343); type: functional;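 further: transfected cells were stimulated with diluted bursicon conditioned medium after compound addition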
[9] = A549 cell cytotoxicity, dose response, cytotoxicity control, plate reader, cherry-pick, antagonist series (AID 743412); type: functional, cell-based
[10] = toxicity toward HepG2 liver cells – cell-based, plate reader, cherry-pick, antagonist series, cytotoxicity control, dose response (AID 743416); type: functional
[11] = biological target: T3, Scavenger receptor class B member 1 (Mus musculus, UniProt Q61009); assay: blockers of DiI-HDL lipid transfer via SR-BI – cell-based, ldlA[mSR-BI] CHO, DiI fluorescence, dry powder, set 10, dose response (AID 624029); type: functional
T3 sequence (Q61009 whole entry): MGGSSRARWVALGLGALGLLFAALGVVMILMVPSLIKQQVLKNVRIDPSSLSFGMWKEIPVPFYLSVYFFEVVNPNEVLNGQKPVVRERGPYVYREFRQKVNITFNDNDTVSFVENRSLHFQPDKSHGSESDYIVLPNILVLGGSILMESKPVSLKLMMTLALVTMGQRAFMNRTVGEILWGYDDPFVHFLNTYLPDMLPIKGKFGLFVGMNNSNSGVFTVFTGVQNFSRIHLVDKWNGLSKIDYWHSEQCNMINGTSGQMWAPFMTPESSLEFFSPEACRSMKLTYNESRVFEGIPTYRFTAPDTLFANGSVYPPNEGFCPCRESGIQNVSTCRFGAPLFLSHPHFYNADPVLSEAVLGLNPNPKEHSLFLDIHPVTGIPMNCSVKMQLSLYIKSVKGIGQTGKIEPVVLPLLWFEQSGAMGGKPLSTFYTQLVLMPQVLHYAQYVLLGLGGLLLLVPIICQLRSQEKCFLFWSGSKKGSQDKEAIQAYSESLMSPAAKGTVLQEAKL

[12] = biological target: T3, Scavenger receptor class B member 1; assay: mouse SR-BI DiI-HDL transfer blockers – ldlA[mSR-BI] CHO cells, fluorescence plate reader, dry powder, set 9, dose response (AID 623880); type: functional, cell-based
[13] = biological target: Fructose-bisphosphate aldolase (Mycobacterium tuberculosis, UniProt P9WQA3); assay: Fluorescence-based biochemical high throughput dose response assay for inhibitors of the fructose-bisphosphate aldolase (FBA) of M. tuberculosis.; type: functional
[14] = HEK293 Cytotoxicity Assay Measured in Cell-Based System Using Plate Reader - 7071-01_Inhibitor_Dose_CherryPick_Activity_Set2.; type: functional
HEK293 = assay: viability loss in HEK293T cells – cell-based, ATP luminescence, cherry-pick samples, cytotoxicity control, dose response (AID 687005); type: functional; conditions: Homo sapiens;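 further: cells exposed to compound for 48 hours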
HeLa = assay: viability loss in HeLa cells – cell-based, ATP luminescence, cherry-pick samples, cytotoxicity control, dose response (AID 687004); type: functional; conditions: Homo sapiens

Sequence of DNA repair and recombination protein RAD54-like (Q92698 whole entry): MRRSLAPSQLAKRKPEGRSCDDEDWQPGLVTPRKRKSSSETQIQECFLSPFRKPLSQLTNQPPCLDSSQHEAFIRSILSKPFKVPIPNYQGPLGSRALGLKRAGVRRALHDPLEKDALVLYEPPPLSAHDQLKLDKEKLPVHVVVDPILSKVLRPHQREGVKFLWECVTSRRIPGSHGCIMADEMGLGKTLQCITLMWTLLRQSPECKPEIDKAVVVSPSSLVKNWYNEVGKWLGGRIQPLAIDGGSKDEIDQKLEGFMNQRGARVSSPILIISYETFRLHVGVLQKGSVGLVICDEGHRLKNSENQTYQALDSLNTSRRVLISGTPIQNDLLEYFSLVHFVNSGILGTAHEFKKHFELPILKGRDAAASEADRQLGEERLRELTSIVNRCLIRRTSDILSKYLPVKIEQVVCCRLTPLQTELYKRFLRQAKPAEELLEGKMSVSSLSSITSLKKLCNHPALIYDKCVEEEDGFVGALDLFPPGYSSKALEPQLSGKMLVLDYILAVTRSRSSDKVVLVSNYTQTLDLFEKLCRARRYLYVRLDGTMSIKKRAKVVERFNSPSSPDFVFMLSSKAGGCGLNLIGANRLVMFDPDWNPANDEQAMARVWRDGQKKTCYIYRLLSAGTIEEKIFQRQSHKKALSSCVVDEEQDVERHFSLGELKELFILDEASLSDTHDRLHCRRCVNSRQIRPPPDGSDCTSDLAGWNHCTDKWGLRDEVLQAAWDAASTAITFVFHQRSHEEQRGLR
Sequence of Fructose-bisphosphate aldolase (P9WQA3 whole entry): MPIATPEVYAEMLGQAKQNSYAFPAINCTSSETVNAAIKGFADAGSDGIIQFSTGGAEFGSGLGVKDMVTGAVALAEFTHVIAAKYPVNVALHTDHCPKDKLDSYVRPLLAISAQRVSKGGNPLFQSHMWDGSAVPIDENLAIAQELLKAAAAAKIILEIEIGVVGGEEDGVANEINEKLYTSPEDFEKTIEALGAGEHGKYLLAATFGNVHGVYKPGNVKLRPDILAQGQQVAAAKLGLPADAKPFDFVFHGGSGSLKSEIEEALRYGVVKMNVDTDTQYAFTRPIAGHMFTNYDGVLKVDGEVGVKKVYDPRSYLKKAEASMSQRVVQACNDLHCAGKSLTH

In the case of `Cc1cc(C)c2c(c1)c1nnc(SCCN3CCCCC3)nc1n2C`, the AC50 [1] is reported as 11 µM (active) and the AC50 [2] is reported as 6.11 µM (active).
In the case of `O=[N+]([O-])c1cccc(Nc2c3ccccc3nc3ccccc23)c1`, the AC50 (cells [3]) is reported as 46.4 µM (active).
For `COC(=O)[C@]12C[C@H](CC(=O)NCCc3ccccc3OC)C(=O)N(Cc3ccccc3)C1=C[C@H](C(C)(C)C)O[C@@H]2C`, the IC50 (cells [4]) was > 29.9 µM (inactive), the IC50 [5] was 7.35 µM (active) and the EC50 (cells [6]) was > 29.9 µM (inactive). For the same compound, the EC50 [7] was 2.45 µM (active).
For `CCCCn1nnnc1C(c1cc2ccccc2o1)N1CCN(c2ccncc2)CC1` (stereo not drawn), the AC50 [8] was 40.1 µM (active), the AC50 [9] was 32.6 µM (active) and the AC50 [10] was > 52 µM (inactive).
In the case of `C[C@@H]1CN([C@H](C)CO[Si](C)(C)C(C)(C)C)C(=O)c2cc(NC(=O)C3CCCCC3)ccc2O[C@H]1CN(C)C(=O)c1ccc(Cl)cc1`, the AC50 [11] is reported as > 70 µM (inactive) and the AC50 [12] is reported as > 70 µM (inactive).
With `O=C(c1ccccc1)c1ccc(OCC(O)CN2CCOCC2)cc1` (stereo not drawn) the IC50 [13] was > 9.99 µM (inactive).
In the case of `C[C@@H]1CN([C@H](C)CO)S(=O)(=O)c2ccc(-c3ccccc3)cc2O[C@H]1CN(C)C(=O)C1CCCCC1`, the AC50 [14] is reported as 16.2 µM (active), the AC50 (HEK293) is reported as 16.2 µM (active) and the AC50 (HeLa) is reported as > 52 µM (inactive).
With `Cc1cccc(CCNCc2cc3ccc(C)cc3nc2O)c1` the IC50 (cells [4]) was > 29.9 µM (inactive), the IC50 [5] was 7.79 µM (active) and the EC50 (cells [6]) was 24.9 µM (inactive). For the same compound, the EC50 [7] was 3.44 µM (active).
For `C[C@H]1CN([C@@H](C)CO)C(=O)Cc2cc(NC(=O)CCCCCC(=O)Nc3ccccc3N)ccc2O[C@H]1CN(C)Cc1ccc2c(c1)OCO2`, the AC50 [14] was 22.8 µM (active), the AC50 (HEK293) was 22.8 µM (active) and the AC50 (HeLa) was 51.7 µM (active).
